Assay results as given in patent publication US12491188B2, “Small molecule PARG inhibitors and methods of use thereof” (Board of Regents, The University of Texas System, priority 2019, dated 2025).
Several values for one entry are separate records, joined by “and”; a condition that tells them apart may be missing. Equal values may be shown once. Read-outs that look alike come from different tables or passages of the source.

Tests used:
rat PARG = rat PARG (Rattus norvegicus (Rat), UniProt Q9QYM2); assay: High-throughput screening with the TR-FRET PAR turnover assay; format: biochemical; details: 6.7 μM compound; 12.5 nM and 25 nM rat PARG
rat PARG, sequence (Q9QYM2 385-972): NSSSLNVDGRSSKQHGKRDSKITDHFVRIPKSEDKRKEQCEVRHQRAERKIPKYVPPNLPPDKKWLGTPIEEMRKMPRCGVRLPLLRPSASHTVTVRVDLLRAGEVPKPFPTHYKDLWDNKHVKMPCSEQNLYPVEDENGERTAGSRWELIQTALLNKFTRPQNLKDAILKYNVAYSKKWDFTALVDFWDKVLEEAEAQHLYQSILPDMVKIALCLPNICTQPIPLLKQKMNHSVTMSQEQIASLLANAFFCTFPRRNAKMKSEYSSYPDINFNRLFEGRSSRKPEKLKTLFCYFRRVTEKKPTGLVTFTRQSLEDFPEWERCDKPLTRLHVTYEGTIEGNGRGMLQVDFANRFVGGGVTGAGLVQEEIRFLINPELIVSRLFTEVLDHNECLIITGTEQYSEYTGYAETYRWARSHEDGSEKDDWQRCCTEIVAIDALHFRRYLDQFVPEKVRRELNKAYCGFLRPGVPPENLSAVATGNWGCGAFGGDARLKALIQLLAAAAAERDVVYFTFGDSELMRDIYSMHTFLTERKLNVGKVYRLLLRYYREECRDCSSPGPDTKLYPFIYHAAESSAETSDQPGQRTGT
Description: The NCI Diversity Set II library (1,990 compounds) was screened against rat PARG then human PARG was used to validate and optimize PARG inhibitors. The accuracy of the screen was determined by the calculated Z-scores of control reactions, which were between 0.6 and 0.8 throughout the plates, indicative of high reproducibility (FIG. 2a). […] The rate of TR-FRET signal loss in the presence of each candidate inhibitor was compared to that of control reactions containing DMSO only (FIG. 2b). Initially, 104 compounds were selected that inhibited PARG enzymatic activity at both enzyme concentrations. Thirty-nine of these compounds were discarded as they altered fluorescence intensity of donor or acceptor (F520 and F495) by >40% at the first time point. […] For the selected compounds, gel-based assays were performed to directly monitor inhibition of PARP1 dePARylation by PARG (FIG. 2c).
TR-FRET PAR turnover assay. For a high-throughput screening (HTS) of PARG inhibitors, a high-throughput PARG activity assay was developed using the TR-FRET system. Briefly, the fluorescein molecule (FITC) was enzymatically incorporated into PARP1 in a reaction containing PARP1C (2 μM), the PARP1 DBD (2 μM), a 24 mer nicked DNA oligo (2 μM), and a mixture of unlabeled NAD^+ (Sigma) and FITC-NAD^+ (Trevigen) substrates (total NAD+concentration of 100 μM).
After incubation for 1 hr at 37° C., PARylated PARP1 was desalted using a PD-10 desalting column (GE healthcare) in a buffer containing 25 mM Tris-HCl (pH 7.5), 50 mM NaCl, and 0.01% NP-40 and used as the FRET acceptor. The biotin-tagged BRCT1 domain of XRCC1 (BRCT1, 5 nM) was conjugated with an equimolar concentration of Tb^3+-chelated streptavidin (Life Technologies) in TR-FRET assay buffer (FRET donor). […] The reaction was started by the addition of the FRET pair of FITC-labeled PARP1 (42 nM) and Tb^3+-BRCT1 (5 nM). The TR-FRET signal was subsequently monitored for 60 min.
High-throughput screening of PARG inhibitors. Small molecule inhibitors of PARG were identified by high-throughput screening (HTS) using the TR-FRET PAR turnover assay. Compounds (final concentration of 6.7 μM) from the NCI Diversity Set II library (1,990 compounds) were predispensed into black polystyrene 384-well plates (Corning) using a Hummingbird liquid handler (Digilab). Then, 10 μL of rat PARG^385-972 (12.5 nM and 25 nM) was subsequently dispensed into plates using a multi-drop combi nL reagent dispenser (Thermo Scientific), and incubated with compounds for 1 hr at 4° C. The reaction was initiated by the addition of 20 μl of the premixed FRET pair of FITC-labeled PARP1 (42 nM) and Tb^3+-BRCT1 (5 nM), and the TR-FRET signal was monitored every four minutes for 40 min (11 data points). Hits were selected by visually comparing the rate of the TR-FRET signal decrease in each well to that of negative control reactions containing DMSO (FIG. 1b and see Text for details). The HTS was performed at the High-Throughput Screening Core (HTSC) at Washington University School of Medicine.

human PARG = human PARG (Homo sapiens (Human), UniProt Q86W56); assay: Gel-based PARG activity assay; format: biochemical
human PARG, sequence (Q86W56 389-976): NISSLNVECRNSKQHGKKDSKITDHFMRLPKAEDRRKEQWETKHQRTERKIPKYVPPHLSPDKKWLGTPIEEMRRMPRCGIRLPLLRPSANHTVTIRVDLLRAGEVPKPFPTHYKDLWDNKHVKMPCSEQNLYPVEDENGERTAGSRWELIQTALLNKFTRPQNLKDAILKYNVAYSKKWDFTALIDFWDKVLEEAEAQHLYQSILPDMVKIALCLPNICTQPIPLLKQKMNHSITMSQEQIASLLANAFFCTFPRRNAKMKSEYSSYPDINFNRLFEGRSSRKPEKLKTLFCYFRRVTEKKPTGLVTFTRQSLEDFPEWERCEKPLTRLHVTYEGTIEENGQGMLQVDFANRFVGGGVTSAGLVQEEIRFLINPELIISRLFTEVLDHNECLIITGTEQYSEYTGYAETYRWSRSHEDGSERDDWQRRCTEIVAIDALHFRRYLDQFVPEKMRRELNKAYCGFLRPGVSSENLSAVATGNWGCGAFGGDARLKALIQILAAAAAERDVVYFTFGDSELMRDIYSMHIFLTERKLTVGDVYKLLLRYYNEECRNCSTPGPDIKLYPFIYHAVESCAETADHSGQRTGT
Description: FIGS. 9a & 9b show structure-activity relationships (SAR) of compounds from five main chemotypes. (FIG. 9a) A total of 34 representative HTS hits and commercially available analogues from each chemotype (FIG. 7 and FIG. 29) were analyzed using the gel-based PARG activity assay. This gel-based assay directly monitors the change of PARylation status of PARP1 as a substrate of PARG. […] The reaction was quenched after a 30 min incubation at room temperature by adding SDS-PAGE sample buffer. PARylated PARP1C runs as a smear on SDS-PAGE that is reduced to a single band by PARG treatment. […] (FIG. 9b) Quantification of the dose-response PARG inhibition by JA2-3 using the gel-based PARG activity assay. hPARG (1 nM) was preincubated with increasing concentrations (0.032-1 μM) of JA2-3 for 1 hr at room temperature before PARylated PARP1C (500 nM) was added. The reaction was quenched after a 30 min incubation at room temperature. PARylated PARP1C migrates slower than unmodified PARP1C and was quantified using ImageJ. To determine the IC50 value, the dose-response data were plotted as a function of JA2-3 concentration and fitted to the four-parameter logistic equation using SigmaPlot. The rate of the PARG-dependent signal loss in the TR-FRET PAR turnover assay is not equivalent to the steady-state rate of PAR turnover, because the TR-FRET assay can't detect signal loss until the length of PAR chains become shorter than 7 ADP-ribose units. Therefore, the gel-based PARG activity assay to accurately determine the IC50 values throughout the present disclosure.
Gel-based PARG activity assay. PARP1C (2 μM) is enzymatically auto-modified in a reaction containing the PARP1 DBD (2 μM), a 24 mer nicked DNA oligo (2 μM), and NAD+(300 μM) for 1 hr at 37° C., as described previously (Kim et al., 2012). Human PARG^389-976 (1 nM) was pre-incubated with compounds for 1 hr at room temperature. The reaction was initiated by addition of PARylated PARP1 (final concentration of 500 nM) and quenched after 30 min incubation at room temperature by adding SDS-PAGE sample buffer. The gel was visualized by sypro-ruby staining (Kim et al., 2012) and the retained PARylated PARP1C species were quantified using ImageJ (Schneider et al., 2012).
PARylated PARP1C that migrates slower than unmodified PARP1C was quantified. […] The IC50 values were determined by fitting the dose-response data for each compound to a four-parameter logistic equation using SigmaPlot (Systat Software Inc.).
To test specificity of JA2131, human PARG^389-976 (1 nM) was pre-incubated with JA2131 (5, 10, and 20 μM) in the presence and absence of 0.1% Triton-X 100 or 0.1 mg/ml BSA for 1 hr at room temperature. The reaction was initiated, quenched, visualized, and quantified as described above.

PARG = details: Falsig et al., 2004; read-out: IC50 of PARG inhibition; cited from earlier work
[1] = Table 1, PARG inhibition, read-out: IC50
[2] = hPARG 1 nM, PARylated PARP1C 500 nM, read-out: IC50 of PARG inhibition
[3] = hPARG 1 nM, PARylated PARP1C 500 nM

Cc1ccc(C2=C(Cl)C(=O)C(c3ccc(C)cc3)=C(Cl)C2=O)cc1 [Compound 121838]
~100% PARG inhibition at both 12.5 nM and 25 nM (rat PARG): Yes

O=C1C=CC(=Nc2cccc3c(N=C4C=CC(=O)O4)cccc23)O1 [Compound 69575]
~100% PARG inhibition at both 12.5 nM and 25 nM (rat PARG): Yes

O=S(=O)(O)c1cc(O)c2c(N=Cc3ccccc3O)cc(S(=O)(=O)O)cc2c1 [Compound 88947]
~100% PARG inhibition at both 12.5 nM and 25 nM (rat PARG): Yes

CCOC(=O)CSc1nc2c([nH]1)c(=O)n(C)c(=O)n2C [LPF-I-35-1]
IC50 (human PARG; [1]): > 25 µM

Cn1c(=O)c2c(ncn2CCCC(=O)O)n(C)c1=O [JA2-9]
IC50 (human PARG; [1]): > 100 µM

CCC(=O)OCN1C(=O)C=CC1=O [Compound 19630]
~100% PARG inhibition at both 12.5 nM and 25 nM (rat PARG): Yes

O=C(OC[C@H]1O[C@@H](OC(=O)c2cc(O)c(O)c(OC(=O)c3cc(O)c(O)c(O)c3)c2)[C@H](OC(=O)c2cc(O)c(O)c(OC(=O)c3cc(O)c(O)c(O)c3)c2)[C@@H](OC(=O)c2cc(O)c(O)c(OC(=O)c3cc(O)c(O)c(O)c3)c2)[C@@H]1OC(=O)c1cc(O)c(O)c(OC(=O)c2cc(O)c(O)c(O)c2)c1)c1cc(O)c(O)c(OC(=O)c2cc(O)c(O)c(O)c2)c1 [Gallotannin]
IC50 (PARG): < 5 µM

Cn1c(=O)c2[nH]c(SCCN3C(=O)c4ccccc4C3=O)nc2n(C)c1=O [LPF-I-81-1]
IC50 (human PARG; [1]): > 25 µM

Cn1c(=O)[nH]c2nc(SCCN3CCOCC3)[nH]c2c1=O [JA2120]
IC50 (human PARG; [1]): 25.7 µM
IC50 (human PARG; [2]): 25.7 µM

Cn1c(=O)c2[nH]c(SCc3ccc(F)cc3)nc2n(C)c1=O [LPF-I-53-1]
IC50 (human PARG; [1]): 65 µM

Cn1c(=O)c2[nH]c(SCc3c(Cl)cccc3Cl)nc2n(C)c1=O [LPF-I-68-1]
IC50 (human PARG; [1]): > 25 µM

O=c1[nH][nH]c(=S)c(=O)[nH]1 [Compound 107684]
~100% PARG inhibition at both 12.5 nM and 25 nM (rat PARG): Yes

Cn1c(=S)[nH]c2nc(SCCN3CCCC3)[nH]c2c1=O [JA2-4]
IC50 (human PARG; [1]): 0.9 µM
IC50 of PARG inhibition (human PARG; [3]): sub-micromolar
IC50 (human PARG; [2]): 0.1 to 1 µM and 0.9 µM

Cn1c(=O)c2[nH]c(CCCC(=O)O)nc2n(C)c1=O [JA2-2]
IC50 (human PARG; [1]): > 100 µM

Cn1c(=O)c2[nH]c(SCCN3CCOCC3)nc2n(C)c1=S [JA2-5]
~100% PARG inhibition at both 12.5 nM and 25 nM (rat PARG): Yes
IC50 (human PARG; [1]): 1 µM
IC50 of PARG inhibition (human PARG; [3]): sub-micromolar
IC50 (human PARG; [2]): 0.1 to 1 µM

Cn1c(=O)c2[nH]c(SCC(=O)OC(C)(C)C)nc2n(C)c1=O [LPF-I-27-1]
IC50 (human PARG; [1]): > 25 µM

O=[N+]([O-])c1ccc(S(=O)(=O)Cc2ccccc2)c2nonc12 [Compound 228148]
~100% PARG inhibition at both 12.5 nM and 25 nM (rat PARG): Yes

FC(F)(F)c1nc2ccc(SSc3ccc4nc(C(F)(F)F)[nH]c4c3)cc2[nH]1 [Compound 659162]
~100% PARG inhibition at both 12.5 nM and 25 nM (rat PARG): Yes

O=c1[nH]c2[nH]c(=S)[nH]c(=S)c2[nH]1 [JA2-3]
~100% PARG inhibition at both 12.5 nM and 25 nM (rat PARG): Yes
IC50 (human PARG; [1]): 0.1 µM
IC50 of PARG inhibition (human PARG; [3]): sub-micromolar
IC50 (human PARG; [2]): 0.1 to 1 µM

Cc1cc(N)c2cc(OCCOc3ccc4nc(C)cc(N)c4c3)ccc2n1 [Compound 22907]
~100% PARG inhibition at both 12.5 nM and 25 nM (rat PARG): Yes

CCOC(=O)CCSc1nc2c([nH]1)c(=O)n(C)c(=O)n2C [LPF-I-83-1]
IC50 (human PARG; [1]): > 25 µM

Cc1ccc(CSc2nc3c([nH]2)c(=O)n(C)c(=O)n3C)cc1 [LPF-I-64-1]
IC50 (human PARG; [1]): > 25 µM

Cn1c(=S)c2[nH]c(SCCN3CCOCC3)nc2n(C)c1=O [LPF-I-146-1]
IC50 (human PARG; [1]): 0.4 µM

Cn1c(=O)c2[nH]c(SCc3ccccc3)nc2n(C)c1=O [LPF-I-51-1]
IC50 (human PARG; [1]): > 25 µM

O=C1C(Cl)=C(Nc2ccc(S(=O)(=O)Nc3ccccn3)cc2)C(=O)c2ccccc21 [Compound 45382]
~100% PARG inhibition at both 12.5 nM and 25 nM (rat PARG): Yes

Cc1cc(O)c(-c2cc(O)c(C)cc2O)cc1O [Compound 2805]
~100% PARG inhibition at both 12.5 nM and 25 nM (rat PARG): Yes
